Test results published in ChEMBL document CHEMBL3988442, “University of Dundee, Small-Polar-MMV Screening Library” (2021).

Molecular target: T1, Coenzyme A biosynthesis bifunctional protein CoaBC (Mycobacterium tuberculosis (strain ATCC 25618 / H37Rv), UniProt P9WNZ1)
T1 sequence (P9WNZ1 whole entry): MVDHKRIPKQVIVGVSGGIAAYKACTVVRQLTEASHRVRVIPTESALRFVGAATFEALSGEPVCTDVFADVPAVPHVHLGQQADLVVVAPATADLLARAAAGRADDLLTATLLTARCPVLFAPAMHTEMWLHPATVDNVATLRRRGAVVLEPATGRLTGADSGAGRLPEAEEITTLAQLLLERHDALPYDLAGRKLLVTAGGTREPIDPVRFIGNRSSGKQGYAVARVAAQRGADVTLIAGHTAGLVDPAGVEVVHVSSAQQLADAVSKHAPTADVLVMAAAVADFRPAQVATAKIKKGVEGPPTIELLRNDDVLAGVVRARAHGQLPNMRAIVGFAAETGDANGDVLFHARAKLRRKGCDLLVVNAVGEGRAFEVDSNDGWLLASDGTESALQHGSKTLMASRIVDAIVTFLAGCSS
Experiment: Biomol Green assay for MtCoaBC inhibitor, OD650 read
Type: functional

Fc1ccc(Oc2nccnc2C2CCN(C3CCOCC3)CC2)cc1
IC50: > 30.2 µM

CCc1ncncc1C(=O)NCCNS(=O)(=O)c1ccc(C)cc1
IC50: > 30.2 µM

Cc1nc(O)cc(C2(C)CCCNC2)n1 (centres undefined)
IC50: > 30.2 µM

CN(Cc1cccnc1)CC1CC12CCN(Cc1nccs1)CC2 (centres undefined)
IC50: > 50.1 µM

NC(=O)CC1CCN(S(=O)(=O)c2cnn(-c3ccccc3)c2)CC1
IC50: > 30.2 µM

Cc1nc(C)n(CC2CN(S(C)(=O)=O)Cc3nccn3C2)n1 (centres undefined)
IC50: > 30.2 µM

COC(=O)C(C)CN(C)S(=O)(=O)c1c(Br)cc2[nH]c(=O)oc2c1Cl (centres undefined)
IC50: > 30.2 µM

CCc1nc(NCCc2c(C)nn(CC)c2C)c2cnn(C)c2n1
IC50: > 30.2 µM

Cn1cc(CN2CCCC3(CCN(Cc4ccncc4)C3=O)C2)cn1 (centres undefined)
IC50: > 30.2 µM

O=C(CCCC1CCCC1)NS(=O)(=O)CC1CC1
IC50: > 30.2 µM

CCOc1ccc(C(=O)CC(SC2CCCCC2)C(=O)O)cc1 (centres undefined)
IC50: > 50.1 µM

CCN(CC)C1CCN(C(=O)NCc2cccc(-n3cccn3)c2)C1 (centres undefined)
IC50: > 30.2 µM

CCc1nc(NS(=O)(=O)c2cccc(F)c2C)no1
IC50: > 30.2 µM

O=C(O)c1cc(-c2ccoc2)cc(S(=O)(=O)N2CCSCC2)c1
IC50: > 30.2 µM

Cc1cccc(CNC(=O)NCC2CCN(Cc3ncc[nH]3)C2)c1 (centres undefined)
IC50: > 30.2 µM

CN(C)C(=O)c1ccc(C(C(=O)O)N(C)Cc2ccccc2Cl)cc1 (centres undefined)
IC50: > 30.2 µM

CS(=O)(=O)N1CCN(C(=O)c2cc(-c3ccc(Br)s3)n[nH]2)CC1
IC50: > 30.2 µM

Cc1cnc(C)c(-c2cccc(-c3ccn(CCN4CCCC4)n3)c2)n1
IC50: > 30.2 µM

O=c1cc(C2CCNCC2)nc(CCc2ccccn2)[nH]1
IC50: > 30.2 µM

Cc1cc(C)cc(-n2ncc3c2CCCC3N)c1 (centres undefined)
IC50: > 30.2 µM

Cc1cccc(NC(=O)NC2CCC3(C2)OCCO3)c1Cl (centres undefined)
IC50: > 30.2 µM

O=C(C1CCOC1)N1Cc2ccccc2OC2(CCOCC2)C1 (centres undefined)
IC50: > 30.2 µM

O=C1c2c(O)cc(O)cc2O[C@@H](c2ccc(O)cc2)[C@@H]1O
IC50: > 30.2 µM

O=C(NCc1ccon1)c1c(F)cc(Br)cc1F
IC50: > 30.2 µM

O=C(NC[C@H]1OC[C@@H](NCc2ccc(F)cc2)[C@@H]1O)N1CCOCC1
IC50: > 30.2 µM

CC(Cc1ccco1)NC(=O)CCn1cccn1 (centres undefined)
IC50: > 30.2 µM

c1ccc(-c2nc(CN3CCCC3Cn3cncn3)co2)cc1 (centres undefined)
IC50: > 30.2 µM

COC1CCN(CCNC(=O)NC(C)c2ccc(F)c(F)c2)CC1 (centres undefined)
IC50: > 30.2 µM

Cn1cnc2cc(NC(=O)c3n[nH]c4c3CCC4)ccc21
IC50: > 30.2 µM

CN1CCC(c2cccc(C(=O)N(C)C)n2)CC1
IC50: > 30.2 µM

CCc1nnc(SCc2nonc2C)n1C1CC1
IC50: > 30.2 µM

COCCC1CCN([C@@H]2c3ccccc3C3(CCNCC3)[C@H]2O)CC1
IC50: > 30.2 µM

O=C(c1cc2cc(F)ccc2[nH]1)N1CCCCC1Cn1cccn1 (centres undefined)
IC50: > 30.2 µM

COc1c(C2SCC(=O)Nc3[nH]ncc32)cc2c(c1OC)OCO2 (centres undefined)
IC50: > 30.2 µM

Cc1nnc2n1CC(CNCc1nc(-c3cccs3)no1)CC2 (centres undefined)
IC50: > 30.2 µM

CC(C)n1nnnc1-c1ccc(NC(=O)C(C)(C)C#N)cc1F
IC50: > 30.2 µM

O=C(NCc1ccco1)[C@H]1C[C@@H]2CCN(c3nncs3)C[C@H]2O1
IC50: > 30.2 µM

Cn1cnc(S(=O)(=O)NCCN2CCCCCC2)c1Cl
IC50: > 30.2 µM

Cc1cnn(CC2CCCN2Cc2nnc(-c3ccccc3)o2)c1 (centres undefined)
IC50: > 30.2 µM

CC(C)C(C)(C#N)NC(=O)Cn1cc(C(N)=O)c(-c2ccccc2)n1 (centres undefined)
IC50: > 30.2 µM

O=S(=O)(NC1CCCCC12OCCO2)c1cc(F)cc(F)c1 (centres undefined)
IC50: > 30.2 µM

CNC(=O)[C@@]12CCC3(CCN(S(=O)(=O)C4CC4)CC3)[C@@H]1CN(C(C)=O)C2
IC50: > 30.2 µM

c1cncc(CN2CCc3ncnc(C4CCOC4)c3CC2)c1 (centres undefined)
IC50: > 30.2 µM

Cc1cccc(NC2CCN(C(=O)Nc3cn[nH]c3)CC2)n1
IC50: > 30.2 µM

CN1CCN([C@H]2CCN(C(=O)c3cc(Cl)cn3C)C[C@H]2CCCO)CC1
IC50: > 30.2 µM

Cn1ccnc1-c1cn(Cc2cn3c(n2)SCC3)nn1
IC50: > 30.2 µM

Cc1ccc(CN2CCC3(CC2)C(=O)Nc2ccccc23)s1
IC50: > 30.2 µM

NC(=O)CN1CCC(NC(=O)COCCOc2ccccc2)CC1
IC50: > 30.2 µM

CCc1noc(C(C)N2CCN(CCN3CCCC3=O)CC2)n1 (centres undefined)
IC50: > 30.2 µM

O=C(NCCn1nc2ccccn2c1=O)c1cc[nH]n1
IC50: > 30.2 µM

CC(NCc1ccccc1Cl)c1ccc2[nH]c(=O)[nH]c2c1 (centres undefined)
IC50: > 30.2 µM

CCc1cc(NCCN2CCNC2=O)n2nccc2n1
IC50: > 30.2 µM

NC(=O)C1CN(C(=O)Nc2ccccc2Oc2ccccc2Cl)CCO1 (centres undefined)
IC50: > 30.2 µM

Cc1nc2c(c(=O)[nH]1)CN(Cc1ccc3c(c1)CCCN3C)CC2
IC50: > 30.2 µM

CC(C(=O)N1CCCC1)S(=O)(=O)Cc1noc(C(C)(C)C)n1 (centres undefined)
IC50: > 30.2 µM

CCC(=O)NCCc1cc2nc(-c3ccncc3)ccn2n1
IC50: > 30.2 µM

Cc1ccc(-c2cc(C(=O)NCCCc3csc(N)n3)[nH]n2)o1
IC50: > 30.2 µM

CN1CCN(c2ncc3c(=O)n(Cc4ccco4)ccc3n2)CC1
IC50: > 30.2 µM

Cc1ccc(C(=O)O)c(N2Cc3cnc(C(C)(C)C)nc3C2)n1
IC50: > 30.2 µM

CC(C)N1CC2(CCC1=O)CCN(c1ccnc3ccccc13)CC2
IC50: > 30.2 µM

Cc1nc2c(C(=O)N[C@H]3C[C@H]4CN(C)CCN4C3)cccc2[nH]1
IC50: > 30.2 µM

CN(Cc1nnc(C2CC2)n1C)C1CCN(Cc2ccncc2)C1 (centres undefined)
IC50: > 30.2 µM

Cc1nn(C)c(Cl)c1C1CCCN1C(=O)c1ccncc1 (centres undefined)
IC50: > 30.2 µM

CC(C)c1noc(CN2CCN(C(=O)c3cc(Cl)ccc3F)CC2)n1
IC50: > 30.2 µM

COCC1c2nnn(CC3CC3)c2CCN1C(=O)N1CCCC1 (centres undefined)
IC50: > 30.2 µM

Cc1cnn(CC2CCCN2Cc2nnc(C)o2)c1 (centres undefined)
IC50: > 30.2 µM

O=C1COC[C@H]([C@H](O)c2ccc(NC(=O)c3cccnc3)cc2)N1
IC50: > 30.2 µM

Cc1cnn(Cc2ccc(NC(=O)N3CCCC3)cc2)c1
IC50: > 30.2 µM

Fc1ccc(-c2nc(CN3CCCCC3Cn3cncn3)co2)cc1 (centres undefined)
IC50: > 30.2 µM

CCN1CCCC(O)(CN(C)Cc2ccc(C)o2)C1 (centres undefined)
IC50: > 30.2 µM

CC(C)CC(NC(=O)c1cccs1)c1nc2cccnc2n1C (centres undefined)
IC50: > 30.2 µM

Cc1cnc(N2CCn3cc(CNC(=O)CC4CC4)nc3C2)nc1
IC50: > 30.2 µM

Cc1cnn(CC2CCCN2C(=O)c2cccc(S(C)(=O)=O)c2)c1 (centres undefined)
IC50: > 30.2 µM

O=C1CCC2(CCN(Cc3cscn3)CC2)CN1CC1CCCO1 (centres undefined)
IC50: > 30.2 µM

Cc1nn(CCO)c(C)c1CNCc1cccnc1N(C)C
IC50: > 30.2 µM

CCN(CCO)C[C@@H]1CN(C(=O)c2ccc(C)s2)C[C@@H]1CO
IC50: > 30.2 µM

CC(c1nc(-c2ccccc2)no1)N1CCc2c(ncn2C2CC2)C1 (centres undefined)
IC50: > 30.2 µM

CCN1CCOCC2(CCCN(C(=O)c3cnccn3)C2)C1 (centres undefined)
IC50: > 30.2 µM

COc1ccc(C2CN(c3cc(C)ncn3)CCN2C(C)=O)cc1 (centres undefined)
IC50: > 30.2 µM

COC(=O)c1ccc(S(=O)(=O)N2CCC(Oc3cccnn3)CC2)cc1
IC50: > 30.2 µM

CC(C)CCc1n[nH]c(C(=O)O)c1Cl
IC50: > 50.1 µM

CC(NC(=O)CSCC(N)=O)c1ccc(Oc2ccccc2)cc1 (centres undefined)
IC50: > 30.2 µM

CC(C)NC1CCN(CCc2ccc3c(c2)CCO3)CC1
IC50: > 50.1 µM

CC(NCCCN1CCCC1=O)c1cc(Br)ccc1F (centres undefined)
IC50: > 30.2 µM

NS(=O)(=O)c1cccnc1Nc1c(Cl)cccc1Cl
IC50: > 30.2 µM

CC(C)NS(=O)(=O)c1cc(C(=O)O)cc(-n2cc3c(n2)CCC3)c1
IC50: > 50.1 µM

CC(=O)Nc1nc(C(=O)N2CCCC2c2noc(C3CC3)n2)cs1 (centres undefined)
IC50: > 30.2 µM

CN(C)C(C(=O)NCc1cc(C(C)(C)C)n[nH]1)c1ccc(F)cc1 (centres undefined)
IC50: > 30.2 µM

Cc1cc(NC(=O)C2CCN(c3ncccc3C#N)CC2)no1
IC50: > 50.1 µM
